The values below come from ChEMBL document CHEMBL1130942, “A combinatorial approach to chemical modification of subtilisin Bacillus lentus” (Bioorg Med Chem Lett, 1998).

Holding throughout (assay type): ADME
Series [1] in a line: Compound was tested for esterase rate in the presence of N62C fully characterised enzyme.
Series [2] is described as follows: Compound was tested for amidase rate in the presence of S166C fully characterised enzyme.
Series [3] is described as follows: Compound was tested for esterase rate in the presence of S166C screen enzyme.
Series [4] can be described thus: Compound was tested for amidase rate in the presence of S166C screen enzyme.
The nature of series [5]: Compound was tested for amidase rate in the presence of N62C screen enzyme.
Series [6] in a line: Compound was tested for esterase rate in the presence of S166C fully characterised enzyme.
The nature of series [7]: Compound was tested for esterase rate in the presence of N62C screen enzyme.
Series [8] can be described thus: Compound was tested for amidase rate in the presence of N62C fully characterised enzyme.

Regarding `CS(=O)(=O)SCc1ccc(C(=O)O)cc1`, the “k cat/Km” value in series [1] was determined as 5.07e+07 M⁻¹ s⁻¹; in series [2], 72000 M⁻¹ s⁻¹; in series [3], 2.37e+06 M⁻¹ s⁻¹; in series [4], 16000 M⁻¹ s⁻¹; in series [5] it was 74000 M⁻¹ s⁻¹; in series [6] it was 1.146e+07 M⁻¹ s⁻¹. The “k cat/Km” value in series [7] was 7.68e+06 M⁻¹ s⁻¹; in series [8] it was 442000 M⁻¹ s⁻¹.
Take `COc1ccc(CSS(C)(=O)=O)cc1`: the “k cat/Km” value in series [1] stood at 7.87e+06 M⁻¹ s⁻¹; in series [2] it was 68000 M⁻¹ s⁻¹; in series [3], 1.746e+06 M⁻¹ s⁻¹; in series [4], 17000 M⁻¹ s⁻¹; in series [5], 86000 M⁻¹ s⁻¹; in series [6] it was 5.798e+06 M⁻¹ s⁻¹. The results for the “k cat/Km” value in series [7] and in series [8] were 5.68e+06 M⁻¹ s⁻¹ and 93000 M⁻¹ s⁻¹, respectively.
As to `CS(=O)(=O)SCc1c(F)c(F)c(F)c(F)c1F` [METHANETHIOSULFONIC ACID PENTAFLUOROPHENYLMETHYL ESTER], the “k cat/Km” value was determined as 1.426e+07 M⁻¹ s⁻¹ in series [1]; 67000 M⁻¹ s⁻¹ in series [2]; 784000 M⁻¹ s⁻¹ in series [3]; 14000 M⁻¹ s⁻¹ in series [4]; 111000 M⁻¹ s⁻¹ in series [5]; 5.198e+06 M⁻¹ s⁻¹ in series [6]. Further, the figures for the “k cat/Km” value in series [7] and in series [8] were 7.52e+06 M⁻¹ s⁻¹ and 198000 M⁻¹ s⁻¹, respectively.
For `CS(=O)(=O)SCc1ccccc1`, the “k cat/Km” value in series [1] is 6.33e+06 M⁻¹ s⁻¹; in series [2], 20000 M⁻¹ s⁻¹; in series [3] it was 1.16e+06 M⁻¹ s⁻¹; in series [4], 10000 M⁻¹ s⁻¹; in series [5], 207000 M⁻¹ s⁻¹; in series [6], 4.92e+06 M⁻¹ s⁻¹. Further, the “k cat/Km” value in series [7] was determined as 6.51e+06 M⁻¹ s⁻¹; in series [8] it was 379000 M⁻¹ s⁻¹.
